Data as given in patent US9115169B2, “Method of treating tumors” (Lytix Biopharma AS, priority 2000, dated 2015).
In brackets after ≈: the same amount, converted by molar mass. Several values for one entry are separate records, joined by “and”; a condition that tells them apart may be missing. Identical values can stand only once. Like-named read-outs stand apart in the source and are kept apart here. Where a SMILES comes first, the peptide text is derived from it. Where no end group is shown, it is not given here. [ ]: non-standard residue; d: D form. The star is where a group is joined. OBn = c1ccc(CO*)cc1

Experiments:
[1] = system: Escherichia coli ATCC 25922
[2] = system: Staphylococcus aureus ATCC 25923
[3] = system: Escherichia coli ATCC 25922; remark: listed apart in the source
[4] = system: Staphylococcus aureus ATCC 25923; remark: listed apart in the source
[5] = system: MRSE ATCC 27626; conditions: ATCC 27626
Method: All strains were stored at −70° C. […] All assays were performed in duplicate.

[6] = Table 1, peptide amides, value outside brackets

For `N=C(N)NCCC[C@H](NC(=O)[C@H](Cc1c[nH]c2ccccc12)NC(=O)[C@H](Cc1c[nH]c2ccccc12)NC(=O)[C@@H](N)CCCNC(=N)N)C(N)=O` [RWWR] (H-RWWR-NH2; N-terminus assumed), the “MIC E. coli” value ([1]; ATCC 25922) was over 100 µg/mL, the “MIC S. aureus” value ([2]; ATCC 25923) was 10 µg/mL (≈ 14.2 µM) and the “MBC E. coli” value ([3]; ATCC 25922) was over 100 µg/mL. The “MBC S. aureus” value ([4]; ATCC 25923) was over 100 µg/mL.
In the case of `N=C(N)NCCC[C@H](NC(=O)[C@H](CCCNC(=N)N)NC(=O)[C@H](Cc1c[nH]c2ccccc12)NC(=O)[C@H](Cc1c[nH]c2ccccc12)NC(=O)[C@H](Cc1c[nH]c2ccccc12)NC(=O)[C@@H](N)CCCNC(=N)N)C(N)=O` [RWWWRR] (H-RWWWRR-NH2), the “MIC E. coli” value ([1]; ATCC 25922) is reported as 10 µg/mL (≈ 9.58 µM), the “MIC S. aureus” value ([2]; ATCC 25923) is reported as 7.5 µg/mL (≈ 7.18 µM) and the “MBC E. coli” value ([3]; ATCC 25922) is reported as 15 µg/mL (≈ 14.4 µM). For the same molecule, the “MBC S. aureus” value ([4]; ATCC 25923) was 10 µg/mL (≈ 9.58 µM).
With `N=C(N)NCCC[C@H](N)C(=O)N[C@@H](Cc1c[nH]c2ccccc12)C(=O)N[C@H](CCCNC(=N)N)C(=O)N[C@H](Cc1c[nH]c2ccccc12)C(=O)OCc1ccccc1` [RWrw-OBzl] (H-RW[dR][dW]-OBn) the “MIC S. aureus” value ([2]; ATCC 25923) was 5 µg/mL (≈ 6.31 µM) and the “MIC MRSE” value [5] was 2.5 µg/mL (≈ 3.15 µM).
In the case of `N=C(N)NCCC[C@H](NC(=O)[C@H](CCCNC(=N)N)NC(=O)[C@@H](N)Cc1c[nH]c2ccccc12)C(=O)N[C@@H](Cc1c[nH]c2ccccc12)C(N)=O` [WRRW] (H-WRRW-NH2; N-terminus assumed), the “MIC E. coli” value ([1]; ATCC 25922) is reported as over 100 µg/mL, the “MIC S. aureus” value ([2]; ATCC 25923) is reported as 75 to 100 µg/mL and the “MBC E. coli” value ([3]; ATCC 25922) is reported as over 100 µg/mL. For the same molecule, the “MBC S. aureus” value ([4]; ATCC 25923) was over 100 µg/mL.
For `N=C(N)NCCC[C@H](NC(=O)[C@H](Cc1c[nH]c2ccccc12)NC(=O)[C@H](CCCNC(=N)N)NC(=O)[C@@H](N)Cc1c[nH]c2ccccc12)C(=O)N[C@@H](Cc1c[nH]c2ccccc12)C(N)=O` [WRWRW] (H-WRWRW-NH2), the “MBC E. coli” value ([3]; ATCC 25922) was 50 µg/mL (≈ 56.3 µM) and the “MBC S. aureus” value ([4]; ATCC 25923) was 20 (20) μg/ml.
`N=C(N)NCCC[C@H](NC(=O)[C@H](Cc1c[nH]c2ccccc12)NC(=O)[C@H](CCCNC(=N)N)NC(=O)[C@@H](N)Cc1c[nH]c2ccccc12)C(N)=O` [WRWR] (H-WRWR-NH2; N-terminus assumed) was tested, and the “MIC E. coli” value [1, 6] was over 100 µg/mL, the “MIC S. aureus” value [2, 6] was 100 µg/mL (≈ 142 µM) and the “MBC E. coli” value ([3]; Table 1, peptide amides) was over 100 µg/mL. The “MBC S. aureus” value [4, 6] was over 100 µg/mL.
`N=C(N)NCCC[C@H](NC(=O)[C@@H](N)Cc1c[nH]c2ccccc12)C(=O)N[C@@H](Cc1c[nH]c2ccccc12)C(N)=O` [WRW] (H-Trp-Arg-Trp-NH2; N-terminus assumed) was tested, and the “MIC E. coli” value ([1]; ATCC 25922) was over 100 µg/mL, the “MIC S. aureus” value ([2]; ATCC 25923) was 75 µg/mL (≈ 137 µM) and the “MBC E. coli” value ([3]; ATCC 25922) was over 100 µg/mL. For the same molecule, the “MBC S. aureus” value ([4]; ATCC 25923) was 100 µg/mL (≈ 183 µM).
In the case of `N=C(N)NCCC[C@H](NC(=O)[C@H](CCCNC(=N)N)NC(=O)[C@H](CCCNC(=N)N)NC(=O)[C@H](Cc1c[nH]c2ccccc12)NC(=O)[C@@H](N)Cc1c[nH]c2ccccc12)C(=O)N[C@@H](Cc1c[nH]c2ccccc12)C(N)=O` [WWRRRW] (H-WWRRRW-NH2), the “MIC E. coli” value ([1]; ATCC 25922) is reported as 20 (20) μg/ml and the “MBC E. coli” value ([3]; ATCC 25922) is reported as 20 µg/mL (≈ 19.2 µM).
`N=C(N)NCCC[C@@H](N)C(=O)N[C@H](Cc1c[nH]c2ccccc12)C(=O)OCc1ccccc1` [rw-OBzl] (H-[dR]-[dW]-OBn) was tested, and the “MIC E. coli” value ([1]; ATCC 25922) was over 200 µg/mL and the “MIC MRSE” value [5] was 20 µg/mL (≈ 44.4 µM).
In the case of `N=C(N)NCCC[C@H](NC(=O)[C@H](N)Cc1c[nH]c2ccccc12)C(=O)N[C@@H](Cc1c[nH]c2ccccc12)C(=O)OCc1ccccc1` [wRW-OBzl] (H-[dW]-Arg-Trp-OBn), the “MIC S. aureus” value ([2]; ATCC 25923) is reported as 20 µg/mL (≈ 31.4 µM) and the “MIC MRSE” value [5] is reported as 10 µg/mL (≈ 15.7 µM).
With `N=C(N)NCCC[C@@H](NC(=O)[C@H](N)Cc1c[nH]c2ccccc12)C(=O)N[C@H](Cc1c[nH]c2ccccc12)C(=O)OCc1ccccc1` [wrw-OBzl] (H-[dW]-[dR]-[dW]-OBn) the “MIC MRSE” value [5] was 5 µg/mL (≈ 7.85 µM).
In the case of “AWRWRA-NH2 Pmc+: hexapeptide amide having the Pmc group (also: Pmc group, position not given here)”, the “MIC E. coli” value ([1]; Table 8, first column) is reported as 20 µg/mL, the “MIC E. coli” value ([1]; Table 8, second column) is reported as 18.0 μM/ml and the “MIC S. aureus” value ([2]; Table 8, first column) is reported as 2.5 µg/mL. For the same molecule, the “MIC S. aureus” value ([2]; Table 8, second column) was 2.3 μM/ml.
“RRAAWW-NH2 Pmc+: hexapeptide amide having the Pmc group; label printed twice, second probably RRAAWB (also: Pmc group, position not given here)” was tested, and the “MIC E. coli” value ([1]; Table 8, first column) was 20 µg/mL, the “MIC E. coli” value ([1]; Table 8, second column) was 17.4 μM/ml and 18.0 μM/ml and the “MIC S. aureus” value ([2]; Table 8, first column) was 2.5 µg/mL. The “MIC S. aureus” value ([2]; Table 8, second column) was 2.2 μM/ml and 2.3 μM/ml.
With “WRAAWR-NH2 Pmc+: hexapeptide amide having the Pmc group (also: Pmc group, position not given here)” the “MIC E. coli” value ([1]; Table 8, first column) was 50 µg/mL, the “MIC E. coli” value ([1]; Table 8, second column) was 45.0 μM/ml and the “MIC S. aureus” value ([2]; Table 8, first column) was 2.5 µg/mL. The “MIC S. aureus” value ([2]; Table 8, second column) was 2.3 μM/ml.
For “WWAARR-NH2 Pmc+: hexapeptide amide having the Pmc group (also: Pmc group, position not given here)”, the “MIC E. coli” value ([1]; Table 8, first column) was 50 µg/mL, the “MIC E. coli” value ([1]; Table 8, second column) was 45.0 μM/ml and the “MIC S. aureus” value ([2]; Table 8, first column) was 5 µg/mL. The “MIC S. aureus” value ([2]; Table 8, second column) was 4.5 μM/ml.
